Source: patent publication US9315490B2, “2,5-substituted pyrimidines” (Grünenthal GmbH, priority 2014, dated 2016)

Biological target: T1, human PDE4B1 (Homo sapiens, UniProt Q07343)
T1 construct: host or cells: Sf9 cells
Test: cAMP HTRF assay to determine the activity of hPDE4B1
Type: biochemical
Details: inhibition of PDE4B at a test concentration of 1 μM
Outline: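 […], using HTRF quantitation of residual cAMP after 1 mM IBMX stop and 60 min detection. Enzyme was Sf9-expressed human PDE4B1 incubated 30 min at room temperature with 40 nM final cAMP at pH 7.8.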

T1 sequence (Q07343 whole entry): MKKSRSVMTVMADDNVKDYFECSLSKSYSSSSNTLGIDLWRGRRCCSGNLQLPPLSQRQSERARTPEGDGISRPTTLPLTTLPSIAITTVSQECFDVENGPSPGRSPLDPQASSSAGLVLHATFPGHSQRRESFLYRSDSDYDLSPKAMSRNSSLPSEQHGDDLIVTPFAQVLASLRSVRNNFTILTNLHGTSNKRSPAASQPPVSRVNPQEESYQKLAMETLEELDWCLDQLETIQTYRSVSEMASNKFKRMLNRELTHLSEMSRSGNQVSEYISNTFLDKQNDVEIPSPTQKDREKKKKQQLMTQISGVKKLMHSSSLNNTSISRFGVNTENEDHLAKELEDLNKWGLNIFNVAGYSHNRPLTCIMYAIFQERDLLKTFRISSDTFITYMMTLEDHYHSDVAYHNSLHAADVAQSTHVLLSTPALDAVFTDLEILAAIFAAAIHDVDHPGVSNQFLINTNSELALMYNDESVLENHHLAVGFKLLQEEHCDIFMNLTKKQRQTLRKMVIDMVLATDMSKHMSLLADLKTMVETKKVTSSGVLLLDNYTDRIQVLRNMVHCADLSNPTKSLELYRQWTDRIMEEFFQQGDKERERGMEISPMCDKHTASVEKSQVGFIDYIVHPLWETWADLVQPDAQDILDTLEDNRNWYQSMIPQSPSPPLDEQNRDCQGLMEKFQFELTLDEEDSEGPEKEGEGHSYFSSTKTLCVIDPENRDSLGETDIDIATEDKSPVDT

| inhibition at 1 µM [%] | SMILES | also measured |
| --- | --- | --- |
|  | COc1ccc(F)c(-c2cnc(-n3cc([S+](C)[O-])c4ccc(C(=O)N5CCOCC5)cc43)nc2)c1 (single isomer, unassigned) [Example 161, (1-(5-(2-Fluoro-5-methoxyphenyl)pyrimidin-2-yl)-3-(methylsulfinyl)-1H-indol-6-yl)(morpholino)methanone] | Inhibition in % (1 µM): 109% |
| 99 | COc1ccc(F)c(-c2cnc(-n3cc([S+](C)[O-])c4ccc(C(=O)N5CC[C@@H](N)C5)cc43)nc2)c1 (stereo partly drawn) [Example 226, ((R)-3-Aminopyrrolidin-1-yl)(1-(5-(2-fluoro-5-methoxyphenyl)pyrimidin-2-yl)-3-(methylsulfinyl)-1H-indol-6-yl)methanone] |  |
| 44 | C[S+]([O-])c1cn(-c2ncc(-c3ccc(C(N)=O)cc3F)cn2)c2cc(C(=O)N3CCNCC3)ccc12 (stereo not drawn) [Example 15, 3-Fluoro-4-(2-(3-(methylsulfinyl)-6-(piperazine-1-carbonyl)-1H-indol-1-yl)pyrimidin-5-yl)benzamide] |  |
| 54 | CN1CCN(C(=O)c2ccc3c([S+](C)[O-])cn(-c4ncc(-c5ccccc5F)cn4)c3c2)CC1 (stereo not drawn) [Example 365, (1-(5-(2-Fluorophenyl)pyrimidin-2-yl)-3-(methylsulfinyl)-1H-indol-6-yl)(4-methylpiperazin-1-yl)methanone] |  |
| 98 | C[S+]([O-])c1cn(-c2ncc(-c3ccccc3F)cn2)c2cc(C(=O)N3CCCCC3)ccc12 (stereo not drawn) [Example 358, (1-(5-(2-Fluorophenyl)pyrimidin-2-yl)-3-(methylsulfinyl)-1H-indol-6-yl)(piperidin-1-yl)methanone] |  |
| 0 | CC(=O)N1CCN(C(=O)c2ccc3c([S+](C)[O-])cn(-c4ncc(-c5ccccc5F)cn4)c3c2)CC1 (stereo not drawn) [Example 385, 1-(4-(1-(5-(2-Fluorophenyl)pyrimidin-2-yl)-3-(methylsulfinyl)-1H-indole-6-carbonyl)piperazin-1-yl)ethanone] |  |
|  | CC(O)c1cn(-c2ncc(-c3ccccc3)cn2)c2cc(C(=O)N3CCOCC3)ccc12 (single isomer, unassigned) [Example 255, (3-(1-Hydroxyethyl)-1-(5-phenylpyrimidin-2-yl)-1H-indol-6-yl)(morpholino)methanone] | Inhibition in %: 95% |
| 90 | CC1CCCN1C(=O)c1ccc2c([S+](C)[O-])cn(-c3ncc(-c4ccccc4F)cn3)c2c1 (stereo not drawn) [Example 359, (1-(5-(2-Fluorophenyl)pyrimidin-2-yl)-3-(methylsulfinyl)-1H-indol-6-yl)(2-methylpyrrolidin-1-yl)methanone] |  |
| 63 | C[S+]([O-])c1cn(-c2ncc(-c3cccnc3F)cn2)c2cc(C(=O)N3CCOCC3)ccc12 (stereo not drawn) [Example 48, (1-(5-(2-Fluoropyridin-3-yl)pyrimidin-2-yl)-3-(methylsulfinyl)-1H-indol-6-yl)(morpholino)methanone] |  |
| 67 | C[S+]([O-])c1cn(-c2ncc(-c3cccc(C(N)=O)c3)cn2)c2cc(C(=O)N3CCOCC3)ccc12 (stereo not drawn) [Example 35, 3-(2-(3-(Methylsulfinyl)-6-(morpholine-4-carbonyl)-1H-indol-1-yl)pyrimidin-5-yl)benzamide] |  |
|  | COc1cccc(-c2cnc(-n3cc([S+](C)[O-])c4ccc(C(=O)N5CCOCC5)cc43)nc2)c1 (single isomer, unassigned) [Example 158, (1-(5-(3-Methoxyphenyl)pyrimidin-2-yl)-3-(methylsulfinyl)-1H-indol-6-yl)(morpholino)methanone] | Inhibition in % (1 µM): 104% |
| 41 | CC1CCN(C(=O)c2ccc3c([S+](C)[O-])cn(-c4ncc(-c5ccccc5F)cn4)c3c2)CC1 (stereo not drawn) [Example 363, (1-(5-(2-Fluorophenyl)pyrimidin-2-yl)-3-(methylsulfinyl)-1H-indol-6-yl)(4-methylpiperidin-1-yl)methanone] |  |
| 102 | C[S+]([O-])c1cn(-c2ncc(-c3ccccn3)cn2)c2cc(C(=O)N3C[C@@H]4C[C@H]3CN4)ccc12 (stereo partly drawn) [Example 244, (1S,4S)-2,5-Diazabicyclo[2.2.1]heptan-2-yl(3-(methylsulfinyl)-1-(5-(pyridin-2-yl)pyrimidin-2-yl)-1H-indol-6-yl)methanone] |  |
| 31 | CN1CCCN(C(=O)c2ccc3c([S+](C)[O-])cn(-c4ncc(-c5ccccc5F)cn4)c3c2)CC1 (stereo not drawn) [Example 376, (1-(5-(2-Fluorophenyl)pyrimidin-2-yl)-3-(methylsulfinyl)-1H-indol-6-yl)(4-methyl-1,4-diazepan-1-yl)methanone] |  |
|  | COc1cccc(-c2cnc(-n3cc([S+](C)[O-])c4ccc(C(=O)N5CCOCC5)cc43)nc2)c1 (single isomer, unassigned) [Example 157, (1-(5-(3-Methoxyphenyl)pyrimidin-2-yl)-3-(methylsulfinyl)-1H-indol-6-yl)(morpholino)methanone] | Inhibition in % (1 µM): 81% |
|  | COC1CCN(C(=O)c2ccc3c([S+](C)[O-])cn(-c4ncc(-c5ccccc5F)cn4)c3c2)CC1 (stereo not drawn) [Example 381, (1-(5-(2-Fluorophenyl)pyrimidin-2-yl)-3-(methylsulfinyl)-1H-indol-6-yl)(4-methoxypiperidin-1-yl)methanone] | Inhibition in % (1 µM): 12% |
| 115 | COc1cccc(-c2cnc(-n3cc([S+](C)[O-])c4ccc(C(=O)N5CCOCC5)cc43)nc2)c1 (stereo not drawn) [Example 45, (1-(5-(3-Methoxyphenyl)pyrimidin-2-yl)-3-(methylsulfinyl)-1H-indol-6-yl)(morpholino)methanone] |  |
| 82 | C[S+]([O-])c1cn(-c2ncc(-c3c(F)cccc3F)cn2)c2cc(C(=O)N3CCOCC3)ccc12 (stereo not drawn) [Example 44, (1-(5-(2,6-Difluorophenyl)pyrimidin-2-yl)-3-(methylsulfinyl)-1H-indol-6-yl)(morpholino)methanone] |  |
| 108 | C[S+]([O-])c1cn(-c2ncc(-c3ccccc3F)cn2)c2cc(C(=O)N3CC[C@@H](N)C3)ccc12 (stereo partly drawn) [Example 68] |  |
| 38 | CN(CC(C)(C)O)C(=O)c1ccc2c([S+](C)[O-])cn(-c3ncc(-c4ccccc4F)cn3)c2c1 (stereo not drawn) [Example 171, 1-(5-(2-Fluorophenyl)pyrimidin-2-yl)-N-(2-hydroxy-2-methylpropyl)-N-methyl-3-(methylsulfinyl)-1H-indole-6-carboxamide] |  |
| 70 | CN(CC(=O)O)C(=O)c1ccc2c([S+](C)[O-])cn(-c3ncc(-c4ccccc4F)cn3)c2c1 (stereo not drawn) [Example 173, 2-(1-(5-(2-Fluorophenyl)pyrimidin-2-yl)-N-methyl-3-(methylsulfinyl)-1H-indole-6-carboxamido)acetic acid] |  |
